Read-outs that look alike come from different tables or passages of the source.
How the values were obtained:
[1] = system: L929 (murine fibroblasts); assay: Antiproliferative MTT assay, normal fibroblasts L929; type: cell-based, mouse; conditions: for IC50: Mus musculus, read-out: IC50 L929
Protocol: (§1) Human cancer cell lines—prostatic adenocarcinoma (PC-3, ATCC CRL-7934), lung adenocarcinoma (A549, ATCC CCL-185), and cervical carcinoma (SiHa, ATCC HTB-35)—along with normal mouse fibroblasts (L929, ATCC CRL-6364) were cultured as monolayers in Dulbecco’s Modified Eagle Medium (DMEM) supplemented with 10% (v/v) fetal bovine serum (FBS), 1% (v/v) penicillin, and 1% (v/v) streptomycin. These cultures were maintained at 37 °C in a humidified atmosphere with 5% CO2. The antiproliferative effects of Phyllanthus-derived extracts and isolated compounds were evaluated using a previously described method. Cells were seeded at 5 × 10^3/well in 96-well plates (100 µL) and incubated for 24 h. After incubation, the medium was replaced with 100 µL of serum-free medium containing varying concentrations of the treatments (0.5–250 µg/mL for extracts and 0.01–100 µg/mL for pure compounds). Each treatment was tested in triplicate. Controls included a PBS-containing medium as a blank, 1% (w/v) bovine serum albumin-amended medium as a negative control (100% survival), and podophyllotoxin (0.16–100 µg/mL) as a positive control. After 48 h of treatment, cell viability was determined by adding 10 µL of MTT (5 mg/mL) to each well, followed by a 3-h incubation under the same culture conditions. The resulting formazan crystals were dissolved in 100 µL of DMSO, and absorbance was measured at 570 nm using a Varioskan LUX 96-well plate reader (Thermo Fisher Scientific, Waltham, MA, USA). The antiproliferative effects were quantified as the half-maximal inhibitory concentration (IC50) in µg/mL for extracts and µM for pure compounds. Dose–response curves were used to determine IC50 values from non-linear regression using GraphPad 7.0 (GraphPad, San Diego, CA, USA).

[2] = system: PC-3 (prostate adenocarcinoma); assay: Antiproliferative MTT assay, PC-3; type: cell-based; conditions: Homo sapiens, read-out: IC50 PC-3
Protocol: as §1

[3] = system: A549 (lung carcinoma); assay: Antiproliferative MTT assay, A549; type: cell-based; conditions: Homo sapiens, read-out: IC50 A549
Protocol: as §1

[4] = system: SiHa (cervical carcinoma); assay: Antiproliferative MTT assay, SiHa; type: cell-based; conditions: Homo sapiens
Protocol: as §1

[5] = L929, pure compounds, 48 h treatment, MTT, normal cell line
[6] = pure compounds, 48 h treatment, MTT
[7] = A549, pure compounds, 48 h treatment, MTT
[8] = pure compounds, 48 h treatment, MTT, read-out: IC50 SiHa

Row | Structure (SMILES) | IC50 [1, 5] | IC50 [2, 6] | IC50 [3, 7] | IC50 [4, 8] | IC50 L929 ([1]; pure compounds, 48 h treatment, MTT, normal cell line) | IC50 ([1]; L929, 48 h) | IC50 ([2]; 48 h) | IC50 ([3]; A549, 48 h) | IC50 ([4]; 48 h, read-out: IC50 SiHa) | IC50 ([4]; 48 h, read-out: IC50 SiHa, pure compounds, 48 h treatment, MTT)
1 | COc1cc2c(OC)c3c(c(-c4ccc5c(c4)OCO5)c2cc1OC)C(=O)OC3OC (centres unmarked) [Compound 7, justicidin P] | > 100 µM | 15.2 µM | 45.3 µM | 5.23 µM |  |  |  |  |  | 
2 | COc1cc(C=C2C(=O)OCC2Cc2ccc(O)c(OC)c2)ccc1O (single isomer, unassigned; (+)) [Compound 2, (+)-acutissimalignan B] | > 100 µM | 6.55 µM | 78.6 µM | 56.8 µM | no observed cytotoxicity |  |  |  |  | 
3 | COc1cc([C@@H]2c3cc4c(cc3[C@H](O)[C@H]3COC(=O)[C@H]23)OCO4)cc(OC)c1OC [ppt, podophyllotoxin, reference compound] |  |  |  |  |  | 2.53 µM | 2.22 µM | 4.82 µM | 1.85 µM | 
4 | O=C1OC[C@H](Cc2ccc3c(c2)OCO3)[C@H]1Cc1ccc2c(c1)OCO2 [Compound 4, (−)-hinokinin] | 76.3 µM | 4.55 µM | 12.3 µM | 61.2 µM |  |  |  |  |  | 
5 | COc1cc2c(OC)c3c(c(-c4ccc5c(c4)OCO5)c2cc1O)C(=O)OC3 [Compound 3, phyllanthusmin A] | 92.3 µM | 16.3 µM | 93.2 µM | 8.61 µM |  |  |  |  |  | 
6 | COc1cc(-c2c3c(c(OC)c4cc5c(cc24)OCO5)C(OC(C)=O)OC3=O)cc2c1OCO2 (single isomer, unassigned; (+)) [Compound 6, (+)-5-methoxy-9-(7-methoxybenzo[d][1,3]dioxol-5-yl)-8-oxo-6,8-dihydrofuro[3′,4′:6,7]naphtho[2,3-d][1,3]dioxol-6-yl acetate] |  |  |  |  |  | 86.3 µM | 15.3 µM | 26.5 µM |  | 3.62 µM
7 | COc1cc2c(OC)c3c(c(-c4ccc5c(c4)OCO5)c2cc1OC)C(=O)OC3 [Compound 5, justicidin A] | > 100 µM | 17.6 µM | 50.3 µM | 6.53 µM |  |  |  |  |  | 

— paper PMC11597697, “Chemical Composition and Bioactivity Dataset Integration to Identify Antiproliferative Compounds in Phyllanthus Plants” (Pharmaceutics, 2024)
